The term Ki denotes a measure of affinity in units of concentration, obtained from inhibition or displacement.

T1 sequence (P29274 whole entry): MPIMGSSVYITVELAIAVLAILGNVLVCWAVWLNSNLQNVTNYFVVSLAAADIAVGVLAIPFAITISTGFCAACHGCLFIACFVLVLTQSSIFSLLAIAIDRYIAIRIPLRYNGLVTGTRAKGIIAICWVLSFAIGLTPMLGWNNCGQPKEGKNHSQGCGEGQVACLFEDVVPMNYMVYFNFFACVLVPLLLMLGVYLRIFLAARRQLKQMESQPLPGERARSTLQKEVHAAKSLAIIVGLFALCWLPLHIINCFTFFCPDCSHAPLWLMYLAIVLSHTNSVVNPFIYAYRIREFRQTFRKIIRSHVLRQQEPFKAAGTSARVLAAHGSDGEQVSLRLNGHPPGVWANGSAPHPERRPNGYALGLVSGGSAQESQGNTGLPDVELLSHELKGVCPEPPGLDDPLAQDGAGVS

This assay addresses T1, human adenosine A2A receptor (Homo sapiens, UniProt P29274).
T1 construct: expressed in transfected cells; host or cells: CHO cells, semliki forest virus expression system; washed membranes
In words: [3H]-SCH-58261 binding assay, human adenosine A2A receptor (CHO cell membranes, SPA). Particulars: [3H]-SCH-58261 displacement; list of examples 10-108; read-out: hA2a Ki. On the procedure:
Human Adenosine A2A Receptor
The human adenosine A2A receptor was recombinantly expressed in chinese hamster ovary (CHO) cells using the semliki forest virus expression system. Cells were harvested, washed twice by centrifugation, homogenized and again washed by centrifugation. The final washed membrane pellet was suspended in a Tris (50 mM) buffer containing 120 mM NaCl, 5 mM KCl, 2 mM CaCl2 and 10 mM MgCl2 (pH 7.4) (buffer A). […] Compounds were tested at 10 concentrations from 10 μM-0.3 nM. All assays were conducted in duplicate and repeated at least two times. Assay plates were incubated for 1 hour at room temperature before centrifugation and then bound ligand determined using a Packard Topcount scintillation counter. IC50 values were calculated using a non-linear curve fitting program and Ki values calculated using the Cheng-Prussoff equation.
Regarding `CN(C)C(=O)CN(C)C(=O)c1cc(N)c2nc(-c3cccs3)nn2c1` [Example 60, 8-Amino-2-thiophen-2-yl-[1,2,4]triazolo[1,5-a]pyridine-6-carboxylic acid dimethylcarbamoyl-methyl-methyl-amide], the inhibition constant (Ki) came to 548 nM. For `CCN(CCOC)C(=O)c1cc(N)c2nc(-c3cccs3)nn2c1` [Example 61, 8-Amino-2-thiophen-2-yl-[1,2,4]triazolo[1,5-a]pyridine-6-carboxylic acid ethyl-(2-methoxy-ethyl)-amide], the Ki is 920 nM.

Consider `CC1CCCN(C(=O)c2cc(N)c3nc(-c4cccs4)nn3c2)C1` (centres unmarked) [Example 62, (8-Amino-2-thiophen-2-yl-[1,2,4]triazolo[1,5-a]pyridin-6-yl)-(3-methyl-piperidin-1-yl)-methanone], for which the Ki amounted to 716 nM. Regarding `CCCN(C)C(=O)c1cc(N)c2nc(-c3cccs3)nn2c1` [Example 63, 8-Amino-2-thiophen-2-yl-[1,2,4]triazolo[1,5-a]pyridine-6-carboxylic acid methyl-propyl-amide], the inhibition constant (Ki) was determined as 440 nM. Take `CCN(CCc1ccccn1)C(=O)c1cc(N)c2nc(-c3cccs3)nn2c1` [Example 65, 8-Amino-2-thiophen-2-yl-[1,2,4]triazolo[1,5-a]pyridine-6-carboxylic acid ethyl-(2-pyridin-2-yl-ethyl)-amide]: the Ki is 718 nM. For `Nc1cc(C(=O)N2CCSCC2)cn2nc(-c3cccs3)nc12` [Example 66, (8-Amino-2-thiophen-2-yl-[1,2,4]triazolo[1,5-a]pyridin-6-yl)-thiomorpholin-4-yl-methanone], the Ki came out at 982 nM. On to `CN(CCc1ccccc1)C(=O)c1cc(N)c2nc(-c3cccs3)nn2c1` [Example 67, 8-Amino-2-thiophen-2-yl-[1,2,4]triazolo[1,5-a]pyridine-6-carboxylic acid methyl-phenethyl-amide], for which the Ki came to 395 nM. As to `Nc1cc(C(=O)N2CCCC2)cn2nc(-c3ccccc3)nc12` [Example 68, (8-Amino-2-phenyl-[1,2,4]triazolo[1,5-a]pyridin-6-yl)-pyrrolidin-1-yl-methanone], the Ki is 246 nM.

`Nc1cc(C(=O)N2CCCCC2)cn2nc(-c3ccccc3)nc12` [Example 69, (8-Amino-2-phenyl-[1,2,4]triazolo[1,5-a]pyridin-6-yl)-piperidin-1-yl-methanone]: the Ki is 554 nM. As for `CC1CCCN1C(=O)c1cc(N)c2nc(-c3ccccc3)nn2c1` (centres unmarked) [Example 70, (8-Amino-2-phenyl-[1,2,4]triazolo[1,5-a]pyridin-6-yl)-(2-methyl-pyrrolidin-1-yl)-methanone], the inhibitory constant (Ki) was determined as 145 nM. The value for `CCCCN(C)C(=O)c1cc(N)c2nc(-c3ccccc3)nn2c1` [Example 71, 8-Amino-2-phenyl-[1,2,4]triazolo[1,5-a]pyridine-6-carboxylic acid methyl-butyl-amide] was 484 nM; that for `CC1CCCCN1C(=O)c1cc(N)c2nc(-c3ccccc3)nn2c1` (centres unmarked) [Example 72, (8-Amino-2-phenyl-[1,2,4]triazolo[1,5-a]pyridin-6-yl)-(2-methyl-piperidin-1-yl)-methanone] was 361 nM.

Regarding `CCN(CC)C(=O)C1CCCN(C(=O)c2cc(N)c3nc(-c4ccccc4)nn3c2)C1` (centres unmarked) [Example 73, 1-(8-Amino-2-phenyl-[1,2,4]triazolo[1,5-a]pyridine-6-carbonyl)-piperidine-3-carboxylic acid diethylamide], the Ki was determined as 998 nM. The value for `COC[C@@H]1CCCN1C(=O)c1cc(N)c2nc(-c3ccccc3)nn2c1` [Example 74, (8-Amino-2-phenyl-[1,2,4]triazolo[1,5-a]pyridin-6-yl)-(2-methoxymethyl-pyrrolidin-1-yl)-methanone] was 196 nM; that for `CN(C)C(=O)[C@@H]1CCCN1C(=O)c1cc(N)c2nc(-c3ccccc3)nn2c1` [Example 76, 1-(8-Amino-2-phenyl-[1,2,4]triazolo[1,5-a]pyridine-6-carbonyl)-pyrrolidine-2-carboxylic acid dimethylamide] was 420 nM; that for `CN(C)C(=O)CN(C)C(=O)c1cc(N)c2nc(-c3ccccc3)nn2c1` [Example 77, 8-Amino-2-phenyl-[1,2,4]triazolo[1,5-a]pyridine-6-carboxylic acid dimethylcarbamoyl-methyl-methyl-amide] was 674 nM. Regarding `CC1CCCN(C(=O)c2cc(N)c3nc(-c4ccccc4)nn3c2)C1` (centres unmarked) [Example 78, (8-Amino-2-phenyl-[1,2,4]triazolo[1,5-a]pyridin-6-yl)-(3-methyl-piperidin-1-yl)-methanone], the inhibition constant Ki worked out at 385 nM.

Regarding `CCCN(C)C(=O)c1cc(N)c2nc(-c3ccccc3)nn2c1` [Example 79, 8-Amino-2-phenyl-[1,2,4]triazolo[1,5-a]pyridine-6-carboxylic acid methyl-propyl-amide], the inhibitory constant (Ki) amounted to 886 nM.

In the case of `Nc1cc(C(=O)N2CC=CCC2)cn2nc(-c3ccccc3)nc12` [Example 80, (8-Amino-2-phenyl-[1,2,4]triazolo[1,5-a]pyridin-6-yl)-(3,6-dihydro-2H-pyridin-1-yl)-methanone], the Ki was 289 nM.

Regarding `CN(CCc1ccccc1)C(=O)c1cc(N)c2nc(-c3ccccc3)nn2c1` [Example 81, 8-Amino-2-phenyl-[1,2,4]triazolo[1,5-a]pyridine-6-carboxylic acid methyl-phenethyl-amide], the inhibitory constant (Ki) came to 524 nM. On to `CCN(CC)C(=O)c1cc(N)c2nc(-c3ccc(C)o3)nn2c1` [Example 82, 8-Amino-2-(5-methyl-furan-2-yl)-[1,2,4]triazolo[1,5-a]pyridine-6-carboxylic acid diethylamide], for which the Ki was 131 nM. `CCN(CCOC)C(=O)c1cc(N)c2nc(-c3ccc(C)o3)nn2c1` [Example 87, 8-Amino-2-(5-methyl-furan-2-yl)-[1,2,4]triazolo[1,5-a]pyridine-6-carboxylic acid ethyl-(2-methoxy-ethyl)-amide]: the Ki stood at 104 nM. `CCCN(C)C(=O)c1cc(N)c2nc(-c3ccc(C)o3)nn2c1` [Example 89, 8-Amino-2-(5-methyl-furan-2-yl)-[1,2,4]triazolo[1,5-a]pyridine-6-carboxylic acid methyl-propyl-amide]: the Ki is 178 nM. As to `Cc1ccc(-c2nc3c(N)cc(C(=O)N4CCSCC4)cn3n2)o1` [Example 90, [8-Amino-2-(5-methyl-furan-2-yl)-[1,2,4]triazolo[1,5-a]pyridin-6-yl]-thiomorpholin-4-yl-methanone], the inhibition constant (Ki) is 140 nM. As for `Cc1ccc(-c2nc3c(N)cc(C(=O)N(C)CCc4ccccc4)cn3n2)o1` [Example 91, 8-Amino-2-(5-methyl-furan-2-yl)-[1,2,4]triazolo[1,5-a]pyridine-6-carboxylic acid methyl-phenethyl-amide], the Ki was determined as 112 nM. In the case of `Cc1ccc(-c2nc3c(N)cc(C(=O)N4CC(C)OC(C)C4)cn3n2)o1` (centres unmarked) [Example 92, [8-Amino-2-(5-methyl-furan-2-yl)-[1,2,4]triazolo[1,5-a]pyridin-6-yl]-(2,6-dimethyl-morpholin-4-yl)-methanone], the Ki is 249 nM. In the case of `CCN(CC)C(=O)c1cc(N)c2nc(-c3ccc(C)s3)nn2c1` [Example 93, 8-Amino-2-(5-methyl-thiophen-2-yl)-[1,2,4]triazolo[1,5-a]pyridine-6-carboxylic acid diethylamide], the Ki amounted to 322 nM. For the molecule `Cc1ccc(-c2nc3c(N)cc(C(=O)N4CCCC4)cn3n2)s1` [Example 94, [8-Amino-2-(5-methyl-thiophen-2-yl)-[1,2,4]triazolo[1,5-a]pyridin-6-yl]-pyrrolidin-1-yl-methanone], the Ki was found to be 213 nM. The value for `Cc1ccc(-c2nc3c(N)cc(C(=O)N4CCCCC4)cn3n2)s1` [Example 95, [8-Amino-2-(5-methyl-thiophen-2-yl)-[1,2,4]triazolo[1,5-a]pyridin-6-yl]-piperidin-1-yl-methanone] was 225 nM. As to `Cc1ccc(-c2nc3c(N)cc(C(=O)N4CCCC4C)cn3n2)s1` (centres unmarked) [Example 96, [8-Amino-2-(5-methyl-thiophen-2-yl)-[1,2,4]triazolo[1,5-a]pyridin-6-yl]-(2-methyl-pyrrolidin-1-yl)-methanone], the Ki came out at 154 nM. Take `Cc1ccc(-c2nc3c(N)cc(C(=O)N(C)CC(=O)N(C)C)cn3n2)s1` [Example 98, 8-Amino-2-(5-methyl-thiophen-2-yl)-[1,2,4]triazolo[1,5-a]pyridine-6-carboxylic acid dimethylcarbamoyl-methyl-methyl-amide]: the inhibition constant (Ki) stood at 220 nM.

Turning to `CCN(CCOC)C(=O)c1cc(N)c2nc(-c3ccc(C)s3)nn2c1` [Example 99, 8-Amino-2-(5-methyl-thiophen-2-yl)-[1,2,4]triazolo[1,5-a]pyridine-6-carboxylic acid ethyl-(2-methoxy-ethyl)-amide], the inhibition constant Ki was 238 nM. On to `Cc1ccc(-c2nc3c(N)cc(C(=O)N4CCCC(C)C4)cn3n2)s1` (centres unmarked) [Example 100, [8-Amino-2-(5-methyl-thiophen-2-yl)-[1,2,4]triazolo[1,5-a]pyridin-6-yl]-(3-methyl-piperidin-1-yl)-methanone], for which the inhibitory constant (Ki) came out at 178 nM. Then `CCCN(C)C(=O)c1cc(N)c2nc(-c3ccc(C)s3)nn2c1` [Example 101, 8-Amino-2-(5-methyl-thiophen-2-yl)-[1,2,4]triazolo[1,5-a]pyridine-6-carboxylic acid methyl-propyl-amide], with 228 nM; and `Cc1ccc(-c2nc3c(N)cc(C(=O)N4CCSCC4)cn3n2)s1` [Example 102, [8-Amino-2-(5-methyl-thiophen-2-yl)-[1,2,4]triazolo[1,5-a]pyridin-6-yl]-thiomorpholin-4-yl-methanone], with 478 nM.

The values above are taken from US6689790B2, “Substituted triazolopyridine compounds” (Hoffmann-La Roche Inc., priority 2001, dated 2004).
